This data set has as its system gastric bleeding induced by 60% EtOH/150 mM HCl. The data set can be described thus: Gastritis induced by alcohol and hydrochloric acid. The class given is in vivo, rat. The following applies: oral. How it is done:
FIG. 8 is results showing protecting effect of compound on gastrointestinal bleeding caused by alcohol/hydrochloric acid (EtOH/HCl). A is a picture of normal rat stomach. B is a picture of rat stomach, wherein gastrointestinal bleeding was caused by oral administration of 60% EtOH/150 mM HCl after 200˜250 g of rat was fasted for 24 hours. C is a picture of rat stomach, wherein rat was pre-treated with compound 230 minutes before administration of alcohol/HCl, and stomach was taken out 90 minutes after gastrointestinal bleeding. D is a graph quantifying damaged area to evaluate the degree of stomach injury.
Effect of the 2-hydroxybenzoic acid derivative on gastritis induced by alcohol and hydrochloric acid was evaluated. 200˜250 g of male SD rat was fasted for 24 hours, and 60% EtOH/150 mM HCl was orally administered to induce gastric bleeding (gastric injury). Compound 2 was orally administered according to indicated dose 30 minutes before the gastric bleeding, and stomach was taken out 90 minutes after gastric bleeding to evaluate the degree of gastric injury.

Results on 1 compound are retold here after patent US8598383B2, “Pharmaceutical composition for treating or preventing degenerative and inflammatory diseases” (Neurotech Pharmaceuticals Co., Ltd., priority 2006, dated 2013).

As for `O=C(O)c1cc(NCCc2ccc(C(F)(F)F)cc2)ccc1O` [compound 2, 2-hydroxy-5-[2-(4-trifluoromethyl-phenyl)-ethylamino]-benzoic acid], the “toxicity in EtOH/HCl gastritis test” value is recorded as “did not show any toxicity”. For the same compound, the “protection against gastric bleeding” value (30 minutes before EtOH/HCl, stomach taken out 90 minutes after) is given as “protected stomach against gastric bleeding induction”.
